Read-outs that look alike come from different tables or passages of the source. Marks after values point to notes of the source that are not given here.
Columns and labels:
[1] = Plasma Stability Assay (Example A3), rat plasma; assay type: in vitro ADME; settings: 10 μM, 37° C.; for Rat Plasma Metabolite (%): metabolite (mesembrine, 001) accumulated; for Rat Plasma Prodrug (%): prodrug remaining
Source text: (§1) The data is represented in the table below.

[2] = assay type: in vitro ADME, human; settings: 5 μM, 37° C.; for Human Plasma Metabolite (%): metabolite (mesembrine) accumulated; for Human Plasma Prodrug (%): prodrug remaining
Protocol: (§2) Each test was carried out in duplicate for each time point; 0 min, 15 min, 30 min, 60 min, 120, 240 min. […]

in vivo = assay type: in vivo, mouse; settings: for half-life / C0 / clearance / Vd: iv, 2 mg/kg; for C0: back extrapolated; for Vd: read-out: Vss
Protocol: Total fifteen male mice were used in this study with n=3 mice/time point with sparse sampling study design. Animals were administered through intravenous route with solution formulation of 321 at 2 mg/kg dose.
The extraction procedure for plasma/brain samples and the spiked plasma/brain calibration standards were identical (PMSF Stabilized Plasma and Brain used for Preparation of calibration standards): A 20 μL of study sample plasma/brain or spiked plasma/brain calibration standard was added to individual pre-labeled micro-centrifuge tubes followed by 200 μL of internal standard prepared in acetonitrile (Rosuvastatin, 50 ng/mL) was added except for blank, where 200 μL of acetonitrile was added. Samples were vortexed for 5 minutes. Samples were centrifuged for 10 minutes at a speed of 4000 rpm at 4° C. Following centrifugation, 200 μL of clear supernatant was transferred in 96 well plates and analyzed using LC-MS/MS.
Brain samples were diluted (1-part of tissue: 2-part of buffer) and homogenized. The homogenate was submitted for bioanalysis and the concentrations (ng/mL) received were corrected with dilution factor (3×) and the final reported concentrations were represented in ng/g.
The plasma and brain concentration-time data of 321 and 001 were used for the pharmacokinetic analysis.
LLOQ: 321: 1.02 ng/mL for plasma and brain 001: 1.01 ng/mL for plasma and brain

[3] = assay type: in vitro ADME, mouse; settings: 5 μM, 37° C.; for Mouse Plasma Metabolite (%): metabolite (mesembrine) accumulated; for Mouse Plasma Prodrug (%): prodrug remaining
Protocol: as §2

[4] = Metabolic Stability in Human Hepatocytes; assay type: in vitro ADME; settings: cryopreserved human hepatocytes, 37° C.
Protocol: A 2.5 uL aliquot of 100 μM test compound was incubated with 247.5 uL of cryopreserved hepatocytes suspended in serum-free incubation medium at 5×10^5 viable cells/mL. The mixture was incubated at 37° C. and shaken at 500 rpm for the designated time points (0.5, 15, 30, 60, 90, or 120 min). At each time point, 25 μL aliquot of incubation mixture was transferred to 125 μL of cold acetonitrile containing internal standard, followed by centrifugation for 30 min at 3,220 g. 100 μL of supernatant was mixed with 100 μL of distilled water for analysis by LC-MS/MS. Peak areas were determined from extracted ion chromatograms and in vitro half-life (t1/2) was determined from the concentration vs time regression slope, in vitro t1/2=0.693/k. Conversion of the in vitro t1/2 (in min) into the in vitro intrinsic clearance (in vitro CLint, in μL/min/10^6 cells) is done using: in vitro CLint=kV/N.

[5] = Plasma Stability Assay (Example A3), human plasma; assay type: in vitro ADME; settings: 10 μM, 37° C.; for Human Plasma Metabolite (%): metabolite (mesembrine, 001) accumulated; for Human Plasma Prodrug (%): prodrug remaining
Source text: as §1

[6] = 321 after 321 IV 2 mg/kg, 0.08 h
[7] = 321 after 321 IV 2 mg/kg, 0.25 h
[8] = 321 after 321 IV 2 mg/kg, 0.5 h
[9] = male, C57BL/6, mouse, in vivo, 321 in brain after 321 IV 2 mg/kg
[10] = male, C57BL/6, mouse, in vivo, 321 in plasma after 321 IV 2 mg/kg

COc1ccc([C@@]23CCC(OP(=O)(OC(C)C)OC(C)C)=C[C@@H]2N(C)CC3)cc1OC [Compound 321, [(3aS,7aS)-3a-(3,4-dimethoxyphenyl)-1-methyl-3,4,5,7a-tetrahydro-2H-indol-6-yl]diisopropyl phosphate]
Rat Plasma Metabolite (%) ([1]; 0 min): 23.9%
Rat Plasma Metabolite (%) ([1]; 10 min): 53.7%
Rat Plasma Metabolite (%) ([1]; 30 min): 56.0%
Rat Plasma Metabolite (%) ([1]; 60 min): 59.1%
Rat Plasma Metabolite (%) ([1]; 120 min): 59.3%
Rat Plasma Metabolite (%) ([1]; 240 min): 56.7%
Rat Plasma Prodrug (%) ([1]; 0 min): 100.0%
Rat Plasma Prodrug (%) ([1]; 10 min): 74.0%
Rat Plasma Prodrug (%) ([1]; 30 min): 69.8%
Rat Plasma Prodrug (%) ([1]; 60 min): 69.2%
Rat Plasma Prodrug (%) ([1]; 120 min): 68.4%
Rat Plasma Prodrug (%) ([1]; 240 min): 65.7%
Human Plasma Metabolite (%) ([2]; 0 min): 0.08%
Human Plasma Metabolite (%) ([2]; 15 min): 0.29%
Human Plasma Metabolite (%) ([2]; 30 min): 0.40%
Human Plasma Metabolite (%) ([2]; 60 min): 0.49%
Human Plasma Metabolite (%) ([2]; 120 min): 0.67%
Human Plasma Metabolite (%) ([2]; 240 min): 0.61%
Human Plasma Prodrug (%) ([2]; 0 min): 100%
Human Plasma Prodrug (%) ([2]; 15 min): >99%
Human Plasma Prodrug (%) ([2]; 30 min): >99%
Human Plasma Prodrug (%) ([2]; 60 min): >99%
Human Plasma Prodrug (%) ([2]; 120 min): >99%
Human Plasma Prodrug (%) ([2]; 240 min): 78.2%
brain concentrations quantifiable up to (in vivo; 321 after 321 IV 2 mg/kg): ≤ 0.5 h
plasma concentrations quantifiable up to (in vivo; 321 after 321 IV 2 mg/kg): up to 2 h
Brain concentrations (mean) (in vivo; [6]): 99.58 ng/g
Plasma concentrations (mean) (in vivo; [6]): 304.66 ng/mL
Brain concentrations (mean) (in vivo; [7]): 37.11 ng/g
Plasma concentrations (mean) (in vivo; [7]): 104.69 ng/mL
Brain concentrations (mean) (in vivo; [8]): 7.89 ng/g
Plasma concentrations (mean) (in vivo; [8]): 26.16 ng/mL
Plasma concentrations (mean) (in vivo; 321 after 321 IV 2 mg/kg, 1 h): 8.57 ng/mL
Plasma concentrations (mean) (in vivo; 321 after 321 IV 2 mg/kg, 2 h, average of two values): 1.38^d ng/mL
AUClast (in vivo; 321 in brain after 321 IV 2 mg/kg): 27.57 ng·h/g
half-life (in vivo; [9]): 6.6 min
C0 (in vivo; [9]): 158 ng/mL
clearance (in vivo; male, C57BL/6, mouse, in vivo, 321 in brain after 321 IV 2 mg/kg, flagged NR (not reportable, very high vs liver blood flow)): 1150 mL/min/kg
Vd (in vivo; [9]): 10.3 L/kg
clearance (in vivo; [10]): 341 mL/min/kg
half-life (in vivo; [10]): 21.6 min
C0 (in vivo; [10]): 504 ng/mL
Vd (in vivo; [10]): 4.8 L/kg
Kp (in vivo; male, C57BL/6, mouse, in vivo, 321 after 321 IV 2 mg/kg, read-out: Brain-Kp): 0.28
AUC(0-t) (in vivo; [10]): 97.1 ng·h/mL
Mouse Plasma Metabolite (%) ([3]; 0 min): 11.9%
Mouse Plasma Metabolite (%) ([3]; 15 min): 28.4%
Mouse Plasma Metabolite (%) ([3]; 30 min): 38.3%
Mouse Plasma Metabolite (%) ([3]; 60 min): 51.1%
Mouse Plasma Metabolite (%) ([3]; 120 min): 53.7%
Mouse Plasma Metabolite (%) ([3]; 240 min): 55.2%
Mouse Plasma Prodrug (%) ([3]; 0 min): 100%
Mouse Plasma Prodrug (%) ([3]; 15 min): 77.3%
Mouse Plasma Prodrug (%) ([3]; 30 min): 74.5%
Mouse Plasma Prodrug (%) ([3]; 60 min): 58.4%
Mouse Plasma Prodrug (%) ([3]; 120 min): 43.1%
Mouse Plasma Prodrug (%) ([3]; 240 min): 31.7%
half-life at 1 μM [4]: 23 min
hepatocyte CLint at 1 μM [4]: 59.4 µL/min/1e6 cells
Human Plasma Metabolite (%) ([5]; 0 min): 0.40%
Human Plasma Metabolite (%) ([5]; 10 min): 0.50%
Human Plasma Metabolite (%) ([5]; 30 min): 0.57%
Human Plasma Metabolite (%) ([5]; 60 min): 0.65%
Human Plasma Metabolite (%) ([5]; 120 min): 0.82%
Human Plasma Metabolite (%) ([5]; 240 min): 0.96%
Human Plasma Prodrug (%) ([5]; 0 min): 100.0%
Human Plasma Prodrug (%) ([5]; 10 min): >99%
Human Plasma Prodrug (%) ([5]; 30 min): >99%
Human Plasma Prodrug (%) ([5]; 60 min): 98.1%
Human Plasma Prodrug (%) ([5]; 120 min): 94.5%
Human Plasma Prodrug (%) ([5]; 240 min): 96.3%

COc1ccc([C@@]23CCC(OP(=O)(O)OCOC(=O)C(C)C)=C[C@@H]2N(C)CC3)cc1OC [Compound 408, [[(3aS,7aS)-3a-(3,4-dimethoxyphenyl)-1-methyl-3,4,5,7a-tetrahydro-2H-indol-6-yl]oxy-hydroxy-phosphoryl]oxymethyl 2-methylpropanoate]
Rat Plasma Prodrug (%) ([1]; 0 min): 100.0%
Rat Plasma Prodrug (%) ([1]; 10 min): 63.8%
Rat Plasma Prodrug (%) ([1]; 30 min): 29.2%
Rat Plasma Prodrug (%) ([1]; 60 min): 8.2%
Rat Plasma Prodrug (%) ([1]; 120 min): 0.8%
Rat Plasma Prodrug (%) ([1]; 240 min): 0.0%
half-life at 1 μM [4]: 220 min
hepatocyte CLint at 1 μM [4]: 6.4 µL/min/1e6 cells
Human Plasma Prodrug (%) ([5]; 0 min): 100.0%
Human Plasma Prodrug (%) ([5]; 10 min): 94.2%
Human Plasma Prodrug (%) ([5]; 30 min): 82.6%
Human Plasma Prodrug (%) ([5]; 60 min): 69.1%
Human Plasma Prodrug (%) ([5]; 120 min): 45.4%
Human Plasma Prodrug (%) ([5]; 240 min): 23.5%

COc1ccc([C@@]23CCC(OP(=O)(O)OCOC(=O)C(C)(C)C)=C[C@@H]2N(C)CC3)cc1OC [Compound 409, [[(3aS,7aS)-3a-(3,4-dimethoxyphenyl)-1-methyl-3,4,5,7a-tetrahydro-2H-indol-6-yl]oxy-hydroxy-phosphoryl]oxymethyl 2,2-dimethylpropanoate]
Rat Plasma Prodrug (%) ([1]; 0 min): 100.0%
Rat Plasma Prodrug (%) ([1]; 10 min): 89.9%
Rat Plasma Prodrug (%) ([1]; 30 min): 81.2%
Rat Plasma Prodrug (%) ([1]; 60 min): 71.0%
Rat Plasma Prodrug (%) ([1]; 120 min): 44.5%
Rat Plasma Prodrug (%) ([1]; 240 min): 22.7%
half-life at 1 μM [4]: 1540 min
hepatocyte CLint at 1 μM [4]: 1.1 µL/min/1e6 cells
Human Plasma Prodrug (%) ([5]; 0 min): 100.0%
Human Plasma Prodrug (%) ([5]; 10 min): >99%
Human Plasma Prodrug (%) ([5]; 30 min): 95.2%
Human Plasma Prodrug (%) ([5]; 60 min): 93.0%
Human Plasma Prodrug (%) ([5]; 120 min): 87.3%
Human Plasma Prodrug (%) ([5]; 240 min): 75.8%

COc1ccc([C@@]23CCC(OP4(=O)OCCCO4)=C[C@@H]2N(C)CC3)cc1OC [Compound 422, 2-(((3aS,7aS)-3a-(3,4-dimethoxyphenyl)-1-methyl-2,3,3a, 4,5,7a-hexahydro-1H-indol-6-yl)oxy)-1,3,2-dioxaphosphinane 2-oxide]
Rat Plasma Prodrug (%) ([1]; 0 min): 100.0%
Rat Plasma Prodrug (%) ([1]; 10 min): >99%
Rat Plasma Prodrug (%) ([1]; 30 min): >99%
Rat Plasma Prodrug (%) ([1]; 60 min): >99%
Rat Plasma Prodrug (%) ([1]; 120 min): 91.0%
Rat Plasma Prodrug (%) ([1]; 240 min): 76.8%
half-life at 1 μM [4]: 366 min
hepatocyte CLint at 1 μM [4]: 3.9 µL/min/1e6 cells
Human Plasma Prodrug (%) ([5]; 0 min): 100.0%
Human Plasma Prodrug (%) ([5]; 10 min): 89.4%
Human Plasma Prodrug (%) ([5]; 30 min): 73.1%
Human Plasma Prodrug (%) ([5]; 60 min): 62.4%
Human Plasma Prodrug (%) ([5]; 120 min): 39.2%
Human Plasma Prodrug (%) ([5]; 240 min): 19.6%

COc1ccc([C@@]23CCC(OP4(=O)OC(C)CC(C)O4)=C[C@@H]2N(C)CC3)cc1OC (stereo partly drawn) [Compound 423, 2-(((3aS,7aS)-3a-(3,4-dimethoxyphenyl)-1-methyl-2,3,3a, 4,5,7a-hexahydro-1H-indol-6-yl)oxy)-4,6-dimethyl-1,3,2-dioxaphosphinane 2-oxide]
Rat Plasma Prodrug (%) ([1]; 0 min): 100.00%
Rat Plasma Prodrug (%) ([1]; 10 min): >99%
Rat Plasma Prodrug (%) ([1]; 30 min): >99%
Rat Plasma Prodrug (%) ([1]; 60 min): 91.05%
Rat Plasma Prodrug (%) ([1]; 120 min): 83.29%
Rat Plasma Prodrug (%) ([1]; 240 min): 67.32%
half-life at 1 μM [4]: 57 min
hepatocyte CLint at 1 μM [4]: 24.4 µL/min/1e6 cells
Human Plasma Prodrug (%) ([5]; 0 min): 100.00%
Human Plasma Prodrug (%) ([5]; 10 min): >99%
Human Plasma Prodrug (%) ([5]; 30 min): >99%
Human Plasma Prodrug (%) ([5]; 60 min): 98.77%
Human Plasma Prodrug (%) ([5]; 120 min): 97.80%
Human Plasma Prodrug (%) ([5]; 240 min): 89.67%
